Source: patent publication US9522198B2, “Methods and compositions related to targeting tumors and wounds” (Sanford-Burnham Medical Research Institute, priority 2006, dated 2016)
“Also recorded” adds a separate entry of the source. Read-outs that look alike come from different tables or passages of the source. Ends that are not written are not given here.

Experiments:
B16F1 tumors = assay: Homing to B16F1 tumors in wild type, fibrinogen knockout and plasma fibronectin-deficient mice; type: in vivo, mouse
Text: Knockout mice were employed to study the role of fibrin(ogen) and fibronectin in the homing of the CLT peptides to tumors. Fibrinogen knockout mice are viable (Palumbo, J. S., Kombrinck, K. W., Drew, A. F., Grimes, T. S., Kiser, J. H. Jay L. Degen, J. L. & Bugge, T. H. (2000), Blood 96, 3302-3309) and were used as tumor recipients. Complete absence of fibronectin is lethal, but mice that lack plasma fibronectin can be generated by postnatally deleting the fibronectin gene in the liver (Sakai, T., Johnson, K. J., Murozono, M., Sakai, K., Magnuson, M. A., Wieloch, T., Cronberg, T., Isshiki, A., Erickson, H. P., & Fassler R. (2001) Nat. Med. 7, 324-30). The CLT peptides homed to B16F1 tumors grown in wild type C57BL/6 mice (n=10) producing a fibrillar meshwork (CLT1; FIG. 3D). In contrast, only faint, evenly distributed fluorescence was present in tumors (n=4) grown in the fibrinogen knockout mice (which lack the ability to produce fibrin) (FIG. 3E). […] Unlike in the fibrinogen knockout mice, there was no residual peptide binding to the tumors in the plasma fibronectin-deficient mice (FIG. 3H).
B16F1 mouse melanoma, Lewis lung carcinoma, C8161 human melanoma, MDA-MB-435 human breast cancer, and PPC-1 human prostate cancer cells (American Type Culture Collection) were maintained in RPMI or DMEM supplemented with 10% FCS. Human tumor cells (1×10^6) were injected into the mammary fat pad or the flank of nude BALB/c nu/nu mice to induce tumors. MMTV PyMT mice were provided by Dr. Robert Oshima (Burnham Institute for Medical Research, La Jolla, Calif.). […]
The mice were perfused through the heart 3 hours after the peptide injection and tissues removed for examination. […] Tissue fluorescence was quantified using Image-Pro Plus software. At least two images from representative microscopic fields were analyzed from each tissue sample and data from individual mice that received the same treatment (n=2-8) were pooled.

[1] = test system: human umbilical venous endothelial cells (HUVECs); type: cell-based
Text: (§1) CLT1 contains a sequence of three consecutive hydrophobic residues, LII (leucine-isoleucine-isoleucine). This motif is very similar to the VII sequence (V, valine) which causes proteins to form large insoluble aggregates (Esteras-Chopo et al. 2005). […] The ability of CLT1 to aggregate proteins correlates with its cytotoxicity for human umbilical venous endothelial cells (HUVECs).

albumin = albumin (Homo sapiens, UniProt P02768); assay: Aggregate formation in albumin solution (turbidity); type: biochemical; settings: added to an albumin solution
Text: as §1

[2] = test system: orthotopic MDA-MB-435 xenograft tumors; assay: Tumor homing of i.v. injected fluorescein-conjugated peptides, MDA-MB-435 xenografts; type: in vivo, mouse
Text: To determine whether the CLT peptides would recognize clotted plasma proteins in vivo, the peptides were synthesized as fluorescein conjugates and imaged their accumulation in tumors. Mice bearing orthotopic MDA-MB-435 xenograft tumors were intravenously injected with fluorescein-conjugated CLT1 (n=6), CLT2 (n=4), or a control peptide (n=4) with the sequence KAREC (SEQ ID NO: 5).
B16F1 mouse melanoma, Lewis lung carcinoma, C8161 human melanoma, MDA-MB-435 human breast cancer, and PPC-1 human prostate cancer cells (American Type Culture Collection) were maintained in RPMI or DMEM supplemented with 10% FCS. Human tumor cells (1×10^6) were injected into the mammary fat pad or the flank of nude BALB/c nu/nu mice to induce tumors. MMTV PyMT mice were provided by Dr. Robert Oshima (Burnham Institute for Medical Research, La Jolla, Calif.). The MMTV PyMT mice develop breast cancer under the influence of a polyoma middle T antigen driven by the mouse tumor virus promoter (Siegel, P. M., Ryan, E. D., Cardiff, R. D., Muller W. J. (1999) EMBO J., 18, 2149-64). B16F1 tumors induced by injecting 1×10^6 cells subcutaneously were grown in the flank of fibrinogen knock-out mice (Suh, T. T., Holmback, K., Jensen, N. J., Daugherty, C. C., Small, K., Simon, D. I., Potter, S., & Degen, J. L. (1995) Genes Dev. 9, 2020-2033), and of transgenic plasma fibronectin-deficient C57BL/6-Fn(f1/f1) Mx-Cre^+ (Sakai, T., Johnson, K. J., Murozono, M., Sakai, K., Magnuson, M. A., Wieloch, T., Cronberg, T., Isshiki, A., Erickson, H. P., & Fassler R. (2001) Nat. Med. 7, 324-30) and their wild type littermates. Deletion of the fibronectin gene in the liver was induced by poly(I):poly(C) (Yi, M., Sakai, T., Fassler, R., & Ruoslahti, E. (2003) Proc. Natl. Acad. Sci. USA. 100, 11435-11438). Frozen human tissues from clinical breast cancers were provided by the Western Division of the NCI Cooperative Human Tissue Network (Vanderbilt University Medical Center, Nashville, Tenn.).
Peptides were synthesized and conjugated to fluorescein isothiocyanate as described (Laakonen et al. PNAS 2004), and cyclized by exposure to air.
Imaging under a blue light, and examination of the distribution of fluorescein-conjugated peptides after tail vein injection have been described (Hoffman, R. M. (2005) Nature Reviews Cancer 5, 796-806; Laakkonen, P., Akerman, M. E., Biliran, H., Yang, M., Ferrer, F., Karpanen, T., Hoffman, R. M., & Ruoslahti E. (2004) Proc. Natl. Acad. Sci. USA 101, 9381-6).
The imaging methods are briefly described as follows: A Leica fluorescence stereomicroscope, model LZ12, equipped with a 50-W mercury lamp, was used for high-magnification imaging. Selective excitation of GFP was produced through a D425y60 band-pass filter and 470 DCXR dichroic mirror. Emitted fluorescence was collected through a long-pass filter GG475 (Chroma Technology, Brattleboro, Vt.) on a Hamamatsu C5810 3-chip cooled color charge-coupled device camera (Hamamatsu Photonics Systems, Bridgewater, N.J.). Images were processed for contrast and brightness and analyzed with the use of IMAGE PRO PLUS 3.1 software (Media Cybernetics, Silver Springs, Md.). Images of 1,024×724 pixels were captured directly on an IBM PC or continuously through video output on a high-resolution Sony VCR model SLV-R1000 (Sony, Tokyo). Imaging at lower magnification that visualized the entire animal was carried out in a light box illuminated by blue light fiber optics (Lightools Research, Encinitas, Calif.) and imaged by using the thermoelectrically cooled color charge-coupled device camera, as described above (Yang, M., Baranov, E., Jiang, P., Sun, F-X., Li, X-M., Li, L., Hasegawa, S., Bouvet, M., Al-Tuwaijri, M., Chishima, T., et al (2000) Proc. Natl. Acad. Sci. USA 97, 1206-11).
The mice were perfused through the heart 3 hours after the peptide injection and tissues removed for examination. […]

[3] = 500 μg fluorescein-conjugated peptide i.v., 3 h

CGLIIQKNEC (also: cyclic, ring type not given here, fluorescein conjugate, site not given here) [CLT1, cyclic decapeptide from phage library screened on plasma clots; tested as fluorescein conjugate]
homing to B16F1 tumors (B16F1 tumors; plasma fibronectin-deficient mice): negative
homing to B16F1 tumors (B16F1 tumors; wild type C57BL/6 mice): produce a fluorescent meshwork
homing to B16F1 tumors (B16F1 tumors; wild type littermates of plasma fibronectin-deficient mice): homes
cytotoxicity for endothelial cells ([1]; HUVECs): cytotoxic for endothelial cells
cell death ([1]; confluent HUVECs, 150 μg/ml): not in confluent HUVECs
cell death ([1]; proliferating HUVECs, 150 μg/ml in culture media, within 24 h): induced cell death
aggregate formation in albumin solution (albumin): not amyloidogenic
fluorescence in control / healthy organs [2, 3]: not in control organs
fluorescence in tumors, whole tissues under blue light [2, 3]: intense fluorescence; also recorded: strong fluorescence
histological distribution of peptide fluorescence within the tumor ([2]; fluorescein-conjugated peptide i.v., 3 h, 400×): distributed in a network pattern
tumor homing / fluorescence on co-injection with unlabeled CLT2 ([2]; unlabeled CLT2 in 5 fold excess): strongly reduced
